Legend:
TMD-8 cells = experiment: Anti-Proliferation Assay (MTS), TMD-8 cells; format: cell-based; settings: Homo sapiens, TMD8, treated for 72 hours, MTS cell survival
Procedure: (§1) Cell survival is determined by a MTS assay. Briefly, cells (i.e., TMD-8 cells or Rec-1 cells) are plated in a 96-well plate, cultured in complete growth medium, and then treated with various drugs and drug combinations. MTS/PMS is added and incubated, followed by assessment of cell viability using the microplate reader. Data is normalized to untreated controls and analyzed with Microsoft Excel.
(§2) Cell survival was determined by the MTS assay. Briefly, cells (i.e., TMD-8 cells or Rec-1 cells) were plated in a 96-well plate at 2,000-10,000 cells per well, cultured for 24 hours in complete growth medium, and then treated with various drugs and drug combinations for 72 hours. MTS/PMS was added and incubated for 4 hour, followed by assessment of cell viability using the microplate reader (absorbance at 490 nm). Data were normalized to untreated controls and analyzed with Microsoft Excel.

Rec-1 cells = experiment: Anti-Proliferation Assay (MTS), Rec-1 cells; format: cell-based; settings: Homo sapiens, Rec1, treated for 72 hours, MTS cell survival
Procedure: as §1, §2

SMILES: O=C(c1ccc(Oc2ccccc2)cc1Cl)c1c[nH]c2ncnc(N[C@@H]3CC[C@@H](CO)OC3)c12 [Compound (I), (2-chloro-4-phenoxyphenyl)(4-(((3R,6S)-6-(hydroxymethyl)tetrahydro-2H-pyran-3-yl)amino)-7H-pyrrolo[2,3-d]pyrimidin-5-yl)methanone]
- IC50 (TMD-8 cells): 130 ± 60 nM
- IC50 (Rec-1 cells): 180 ± 70 nM

— US11020400B2, “Tetrahydropyranyl amino-pyrrolopyrimidinone and methods of use thereof” (ArQule, Inc., priority 2015, dated 2021)
